From US8242145B2, “Cyclic diaryl ether compounds as antagonists of prostaglandin D2 receptors” (Panmira Pharmaceuticals, LLC, priority 2008, dated 2012) come the findings set out here.

Molecules are shown by their SMILES.

One assay concerns the target T1, human DP1 receptor (Homo sapiens, UniProt Q13258).
T1 construct: tissue Biological Specialty Corporation; host or cells: human platelets, membranes
T1 sequence (Q13258 1-359): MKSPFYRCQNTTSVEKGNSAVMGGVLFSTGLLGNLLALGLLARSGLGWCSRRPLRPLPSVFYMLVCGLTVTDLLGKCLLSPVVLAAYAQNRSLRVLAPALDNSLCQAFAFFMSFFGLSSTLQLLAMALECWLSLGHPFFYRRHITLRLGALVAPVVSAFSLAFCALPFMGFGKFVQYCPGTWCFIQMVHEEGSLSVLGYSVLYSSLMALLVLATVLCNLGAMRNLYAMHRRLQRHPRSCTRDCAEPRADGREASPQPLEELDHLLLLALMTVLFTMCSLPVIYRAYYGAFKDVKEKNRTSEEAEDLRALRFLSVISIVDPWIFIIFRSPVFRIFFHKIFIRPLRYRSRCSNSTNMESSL
In words: DP1 radioligand binding assay using [3H]BWA868C. The note with it: hDP1 binding. In outline: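 Human platelet membranes (20 μg protein/well) incubated 60 min at room temperature with 2 nM [3H]BWA868C in 50 mM Hepes, 10 mM MnCl2, 1 mM EDTA, ±0.2% human serum albumin, pH 7.4. Bound label measured after filtration; nonspecific binding defined with 10 μM BW A868C. IC50 from titration curves.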

Another assay addresses T2, human DP2 receptor (Homo sapiens, UniProt Q9Y5Y4).
T2 construct: expressed in transfected cells
T2 sequence (Q9Y5Y4 1-395): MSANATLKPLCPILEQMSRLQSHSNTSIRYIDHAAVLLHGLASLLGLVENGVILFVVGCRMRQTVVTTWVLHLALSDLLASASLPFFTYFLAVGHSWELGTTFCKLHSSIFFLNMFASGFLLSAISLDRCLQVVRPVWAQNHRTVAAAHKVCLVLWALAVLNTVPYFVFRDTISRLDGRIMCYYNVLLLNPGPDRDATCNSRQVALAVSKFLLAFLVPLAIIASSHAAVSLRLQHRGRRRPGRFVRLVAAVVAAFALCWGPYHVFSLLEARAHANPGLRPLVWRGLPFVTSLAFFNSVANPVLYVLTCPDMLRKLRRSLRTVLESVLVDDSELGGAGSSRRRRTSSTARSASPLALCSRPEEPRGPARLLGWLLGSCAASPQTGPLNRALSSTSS
In words: DP2/CRTH2 radioligand binding assay using [3H]PGD2. The note with it: hDP2 (CRTH2) binding assay. In outline:
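HEK293 membranes with stable recombinant human DP2, incubated with 1 nM [3H]PGD2 and compound 60 min at room temperature in pH 7.4 HEPES/MnCl2/EDTA buffer, with or without 0.2% human serum albumin.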

In assay [1] the target is T3, recombinant human CRTH2 receptor (Homo sapiens, UniProt Q9Y5Y4).
T3 construct: expressed in transfected cells
T3 sequence (Q9Y5Y4 1-395): T2 sequence (Q9Y5Y4 1-395)
In words: GTPγS binding assay. The assay is classed as biochemical. The note with it: +HSA; read-out: hDP2 GTPγS μM (+HSA). The procedure:
The ability of a compound to inhibit binding of GTP to DP2 is assessed via a membrane GTPγS assay. CHO cells stably expressing the recombinant human CRTH2 receptor are resuspended in 10 mM Hepes, 7.4 containing 1 mM DTT, lysed and centrifuged at 75,000×g to pellet the membranes. The membranes are resuspended in 10 mM Hepes, 7.4 containing 1 mM DTT and 10% glycerol. Membranes (˜12.5 μg per well) are incubated in 96-well plates with 0.05 nM [^35S]-GTPγS, 80 nM PGD2, 5 μM GDP, and test compound in Assay Buffer (50 mM Hepes, pH 7.4, 100 mM NaCl, 5 mM MgCl2 and 0.2% human serum albumin) for 60 minutes at 30° C. The reactions are terminated by rapid filtration through Whatman GF/B glass fibre filter plates. The filter plates are washed 3 times with 1 ml cold Assay Buffer and dried. Scintillant is then added to the plates and the radioactivity retained on the filters is determined on a Packard TopCount (Perkin Elmer). Specific binding is determined as total radioactive binding minus non-specific binding in the absence of the ligand (80 nM PGD2). IC50s were determined using Graphpad prism analysis of drug titration curves.
A general note: GTPγS resists hydrolysis and so accumulates on activated G proteins.

For `C[C@@H]1[C@H](c2ccccc2)OC(=O)N1Cc1cc(Br)ccc1Oc1cccc(CC(=O)O)c1` [Compound 1-49, {3-[4-Bromo-2-((4R,5S)-4-methyl-2-oxo-5-phenyl-oxazolidin-3-ylmethyl)-phenoxy]-phenyl}-acetic acid], the IC50 is under 300 nM at human DP1 receptor, under 300 nM at human DP2 receptor and under 0.3 µM in assay [1].
In the case of `C[C@@H]1[C@H](c2ccccc2)OC(=O)N1Cc1cc(Br)ccc1Oc1cc(CC(=O)O)cc(C(F)(F)F)c1` [Compound 1-57, {3-[4-Bromo-2-((4R,5S)-4-methyl-2-oxo-5-phenyl-oxazolidin-3-ylmethyl)-phenoxy]-5-trifluoromethyl-phenyl}-acetic acid], the IC50 on human DP1 receptor was over 1000 nM; on human DP2 receptor it was under 300 nM; in assay [1], under 0.3 µM.
With `COc1ccc(CC(=O)O)cc1Oc1cc(Br)ccc1CN1C(=O)O[C@@H](c2ccccc2)[C@H]1C` [Compound 1-82, {3-[5-Bromo-2-((4R,5S)-4-Methyl-2-oxo-5-phenyl-oxazolidin-3-ylmethyl)-phenoxy]-4-methoxy-phenyl}-acetic acid], the values for the IC50 (on human DP1 receptor; at human DP2 receptor; in assay [1]) were over 1000 nM, under 300 nM and under 0.3 µM, respectively.
On to `O=C(O)Cc1cccc(Oc2ccc(Br)cc2CN2C(=O)O[C@@H]3Cc4ccccc4[C@@H]32)c1` [Compound 2-2, {3-[4-Bromo-2-((3aS,8aR)-2-oxo-8,8a-dihydro-3aH-indeno[1,2-d]oxazol-3-ylmethyl)-phenoxy]-phenyl}-acetic acid], for which the IC50 was over 1000 nM at human DP1 receptor, under 300 nM on human DP2 receptor and under 0.3 µM in assay [1].
With `CS(=O)(=O)c1ccc(-c2ccc(Oc3cccc(CC(=O)O)c3)c(CN3CCOC3=O)c2)cc1` [Compound 1-85, {3-[4′-Methanesulfonyl-3-(2-oxo-oxazolidin-3-ylmethyl)-biphenyl-4-yloxy]-phenyl}-acetic acid], the IC50 on human DP1 receptor is over 1000 nM; at human DP2 receptor, under 300 nM; in assay [1], 0.3 to 1 µM.
For `COc1ccc(CC(=O)O)cc1Oc1ccc(Br)cc1CN1C(=O)O[C@H](c2ccccc2)[C@@H]1C` [Compound 1-30, {3-[4-Bromo-2-((4S,5R)-4-methyl-2-oxo-5-phenyl-oxazolidin-3-ylmethyl)-phenoxy]-4-methoxy-phenyl}-acetic acid], the IC50 on human DP1 receptor was over 1000 nM; on human DP2 receptor, under 300 nM; in assay [1] it was 0.3 to 1 µM.
Turning to `COc1ccc(CC(=O)O)cc1Oc1ccc(C(F)(F)F)cc1CN1C(=O)O[C@@H](c2ccccc2)[C@H]1C` [Compound 1-61, {4-Methoxy-3-[2-((4R,5S)-4-methyl-2-oxo-5-phenyl-oxazolidin-3-ylmethyl)-4-trifluoromethyl-phenoxy]-phenyl}-acetic acid], the IC50 on human DP1 receptor is over 1000 nM; at human DP2 receptor, under 300 nM; in assay [1], 0.3 to 1 µM.
Consider `C[C@@H]1[C@H](c2ccccc2)OC(=O)N1Cc1cc(Br)ccc1Oc1ccc(C(F)(F)F)c(CC(=O)O)c1` [Compound 1-54, {5-[4-Bromo-2-((4R,5S)-4-methyl-2-oxo-5-phenyl-oxazolidin-3-ylmethyl)-phenoxy]-2-trifluoromethyl-phenyl}-acetic acid], for which the IC50 on human DP1 receptor was over 1000 nM; at human DP2 receptor, 300 to 1000 nM; in assay [1] it was over 1 µM.
As to `O=C(O)Cc1cccc(Oc2ccc(-c3cccnc3)cc2CN2CCOC2=O)c1` [Compound 1-8, {3-[2-(2-Oxo-oxazolidin-3-ylmethyl)-4-pyridin-3-yl-phenoxy]-phenyl}-acetic acid], the IC50 on human DP1 receptor was over 1000 nM; at human DP2 receptor, under 300 nM; in assay [1] it was over 1 µM.
In the case of `C[C@H]1[C@@H](c2ccccc2)OC(=O)N1Cc1cc(Br)ccc1Oc1cc(F)cc(CC(=O)O)c1` [Compound 1-26, {3-[4-Bromo-2-((4S,5R)-4-methyl-2-oxo-5-phenyl-oxazolidin-3-ylmethyl)-phenoxy]-5-fluoro-phenyl}-acetic acid], the IC50 was under 300 nM at human DP1 receptor, under 300 nM on human DP2 receptor and under 0.3 µM in assay [1].
With `O=C(O)Cc1cccc(Oc2ccc(Br)cc2CN2CC(c3ccc(Cl)cc3)CC2=O)c1` (stereo not drawn) [Compound 3-2, (3-{4-Bromo-2-[4-(4-chloro-phenyl)-2-oxo-pyrrolidin-1-ylmethyl]-phenoxy}-phenyl)-acetic acid], the results for the IC50 (on human DP1 receptor; on human DP2 receptor; in assay [1]) were 300 to 1000 nM, under 300 nM and over 1 µM, respectively.
Take `C[C@@H]1[C@H](c2ccccc2)OC(=O)N1Cc1cc(C(F)(F)F)ccc1Oc1cc(CC(=O)O)ccc1-c1cnn(C)c1` [Compound 1-79, [3-[2-((4R,5S)-4-Methyl-2-oxo-5-phenyl-oxazolidin-3-ylmethyl)-4-trifluoromethyl-phenoxy]-4-(1-methyl-1H-pyrazol-4-yl)-phenyl]-acetic acid]: the figures for the IC50 (at human DP1 receptor; at human DP2 receptor; in assay [1]) were over 1000 nM, under 300 nM and under 0.3 µM, respectively.
For `O=C(O)Cc1cc(Cl)cc(Oc2ccc(Br)cc2CN2CCOC2=O)c1` [Compound 1-89, {3-[4-Bromo-2-(2-oxo-oxazolidin-3-ylmethyl)-phenoxy]-5-chloro-phenyl}-acetic acid], the IC50 on human DP1 receptor was over 1000 nM; on human DP2 receptor it was under 300 nM; in assay [1] it was under 0.3 µM.
Take `C[C@@H]1[C@H](c2ccc(Cl)cc2)OC(=O)N1Cc1cc(Br)ccc1Oc1cccc(CC(=O)O)c1` [Compound 1-50, (3-{4-Bromo-2-[(4R,5S)-5-(4-chloro-phenyl)-4-methyl-2-oxo-oxazolidin-3-ylmethyl]-phenoxy}-phenyl)-acetic acid]: the IC50 was 300 to 1000 nM at human DP1 receptor, under 300 nM on human DP2 receptor and 0.3 to 1 µM in assay [1].
Consider `O=C(O)Cc1cccc(Oc2ccc(C(F)(F)F)cc2CN2C(=O)O[C@@H]3Cc4ccccc4[C@@H]32)c1` [Compound 2-3, {3-[2-((3aS,8aR)-2-Oxo-8,8a-dihydro-3aH-indeno[1,2-d]oxazol-3-ylmethyl)-4-trifluoromethyl-phenoxy]-phenyl}-acetic acid], for which the IC50 on human DP1 receptor was over 1000 nM; at human DP2 receptor, under 300 nM; in assay [1] it was 0.3 to 1 µM.
Turning to `CCOc1ccc(CC(=O)O)cc1Oc1ccc(Br)cc1CN1C(=O)O[C@@H](c2ccccc2)[C@H]1C` [Compound 1-88, {3-[4-Bromo-2-((4R,5S)-4-methyl-2-oxo-5-phenyl-oxazolidin-3-ylmethyl)-phenoxy]-4-ethoxy-phenyl}-acetic acid], the IC50 at human DP1 receptor is over 1000 nM; at human DP2 receptor it was under 300 nM; in assay [1] it was under 0.3 µM.
For the molecule `O=C(O)Cc1cccc(Oc2ccc(Br)cc2CN2C(=O)O[C@H]3Cc4ccccc4[C@H]32)c1` [Compound 2-1, {3-[4-Bromo-2-((3aR,8aS)-2-oxo-8,8a-dihydro-3aH-indeno[1,2-d]oxazol-3-ylmethyl)-phenoxy]-phenyl}-acetic acid], the IC50 at human DP1 receptor was over 1000 nM; at human DP2 receptor, under 300 nM; in assay [1], under 0.3 µM.
For `O=C(O)Cc1cccc(Oc2ccc(C(F)(F)F)cc2CN2C(=O)OC3c4ccccc4CC32)c1` (stereo not drawn) [Compound 2-7, {3-[2-(2-Oxo-4,8b-dihydro-3aH-indeno[2,1-d]oxazol-3-ylmethyl)-4-trifluoromethyl-phenoxy]-phenyl}-acetic acid] the same measures were over 1000 nM, under 300 nM and under 0.3 µM.
For `C[C@H]1[C@@H](c2ccc(Cl)cc2)OC(=O)N1Cc1cc(Br)ccc1Oc1cccc(CC(=O)O)c1` [Compound 1-16, (3-{4-Bromo-2-[(4S,5R)-5-(4-chloro-phenyl)-4-methyl-2-oxo-oxazolidin-3-ylmethyl]-phenoxy}-phenyl)-acetic acid], the figures for the IC50 (on human DP1 receptor; on human DP2 receptor; in assay [1]) were under 300 nM, under 300 nM and over 1 µM, respectively.
